Article PMC2680961, “Homologous desensitization of signalling by the alpha (α) isoform of the human thromboxane A2 receptor: A specific role for nitric oxide signalling” (Biochimica et Biophysica Acta, 2007)

Columns and labels:
TP^Δ328 = target: T1, TP^Δ328 (Homo sapiens, UniProt P21731); test: Intracellular calcium mobilization, HEK.TP^Δ328 cells; assay type: cell-based; conditions: for Δ[Ca2+]i, U46619-induced: HEK.TP^Δ328
T1 construct: expressed in transfected cells
T1 sequence (P21731 1-328): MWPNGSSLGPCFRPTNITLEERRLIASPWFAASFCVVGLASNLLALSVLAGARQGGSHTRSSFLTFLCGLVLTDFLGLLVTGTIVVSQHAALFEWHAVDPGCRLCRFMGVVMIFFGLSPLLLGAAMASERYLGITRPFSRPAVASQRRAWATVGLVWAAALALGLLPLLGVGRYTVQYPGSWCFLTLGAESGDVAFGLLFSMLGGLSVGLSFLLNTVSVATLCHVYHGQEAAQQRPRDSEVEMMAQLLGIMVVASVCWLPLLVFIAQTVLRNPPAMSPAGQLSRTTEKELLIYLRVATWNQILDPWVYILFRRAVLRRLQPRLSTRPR
Description: (§1) Measurement of intracellular calcium mobilization ([Ca^2+]i) in FURA2/AM preloaded HEK 293 cell lines (2 × 10^6 cells/dish), each transiently co-transfected with pADVA (10 μg), and pCMV:Gαq (25 μg), was carried out as previously described. To investigate the effect of GRK2/βARK1 on TP-mediated [Ca^2+]i mobilization, HEK.TPα or HEK.TPβ cells (2 × 10^6 cells/dish) were co-transfected with pADVA (10 μg), pCMV:Gαq (25 μg) along with pRK5:βARK1^495–689 (25 μg), encoding a dominant negative form of GRK2/βARK1[39]. Approximately 48 h post-transfection, cells were harvested by scraping, washed twice in ice-cold PBS and resuspended in HBSSHB (modified Ca^2+/Mg^2+-free Hank's buffered salt solution, containing […], pH 7.67, 0.1% bovine serum albumin (BSA)) buffer at 10^7 cells/ml and incubated in the dark with 5 μM FURA2/AM for 45 min at 37 °C. Cells were collected by centrifugation (900×g, 5 min), washed once in an equal volume of HBSSHB, and were finally resuspended in HBSSHB buffer at 10^7 cells/ml and kept at room temperature in the dark for 40 min. For each measurement of [Ca^2+]i mobilization, aliquots of cells were diluted to 0.825 × 10^6 cells/ml in HBSSHB, 1 mM CaCl2 and FURA2 fluorescence was recorded (2 ml aliquots of cells) at 37^ °C with gentle stirring with a Perkin Elmer-Cetus LS50-B spectrofluorometer at excitation wavelengths of 340 nm and 380 nm and emission wavelength of 510 nm, respectively.
(§2) Cells were stimulated with the TP agonist U46619 (1 μM) and changes in [Ca^2+]i mobilization were monitored as a function of time. To assess agonist-mediated homologous desensitization, cells (0.825 × 10^6 cells/ml; 2 ml per assay) were stimulated with 1 μM U46619 (Primary stimulation) or, as a control, with the vehicle for 4 min; thereafter, cells were collected by centrifugation (900×g, 5 min); were washed twice in 2 ml HBSSHB, 1 mM CaCl2; and finally resuspended in 2 ml HBSSHB,1 mM CaCl2 and were left to recover over various time intervals (ranging from 0 to 60 min); thereafter, cells re-stimulated with 1 μM U46619 (Secondary stimulation) and changes in [Ca^2+]i mobilization were monitored as a function of time. To assess the role of protein kinase (PK) A, PKC or PKG on U46619-mediated desensitization of TPα signalling, cells were pre-incubated with the PKA inhibitor H-89 (10 μM), the PKC inhibitor GF 109203X (50 nM) or the PKG inhibitor KT 5823 (50 nM), for 15 min and respective kinase inhibitors were maintained throughout the primary/secondary U46619-stimulations and during the washes.
The vehicle had no effect on U46619-mediated [Ca^2+]i mobilization. Calibration of the signal was performed in each sample by adding 0.2% Triton X-100 to obtain the maximal fluorescence ratio (Rmax) and then 1 mM EGTA to obtain the minimal fluorescence ratio (Rmin). The ratio of the fluorescence at 340 nm to that at 380 nm is a measure of [Ca^2+]i, which assumes a Kd of 225 nM Ca^2+ for FURA2/AM. The results presented in the figures are representative data from at least three or four independent experiments and are plotted as changes in Ca^2+i mobilized (Δ[Ca^2+]i (nM)) as a function of time (s) upon ligand stimulation. Changes in [Ca^2+]i mobilization were determined by measuring peak rises in [Ca^2+]i mobilized (Δ[Ca^2+]i) and were calculated as mean changes in Δ[Ca^2+]i ± S.E.M. (nM).

TPα^Δ336 = target: T2, TPα^Δ336 (Homo sapiens, UniProt P21731); test: Intracellular calcium mobilization, HEK.TPα^Δ336 cells; assay type: cell-based; conditions: for Δ[Ca2+]i, U46619-induced: HEK.TPα^Δ336
T2 construct: expressed in transfected cells
T2 sequence (P21731 1-335): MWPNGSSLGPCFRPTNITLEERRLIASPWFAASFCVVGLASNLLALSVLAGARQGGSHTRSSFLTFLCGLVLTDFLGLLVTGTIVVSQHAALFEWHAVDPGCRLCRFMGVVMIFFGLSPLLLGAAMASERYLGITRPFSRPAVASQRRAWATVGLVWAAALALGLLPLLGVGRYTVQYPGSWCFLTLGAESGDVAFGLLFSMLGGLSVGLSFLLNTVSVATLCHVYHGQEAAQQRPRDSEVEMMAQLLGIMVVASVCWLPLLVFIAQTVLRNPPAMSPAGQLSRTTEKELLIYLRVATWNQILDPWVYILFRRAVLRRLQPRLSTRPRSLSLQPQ
Description: as §1, with “Cells were collected by centrifugation (900×g, 5 min), washed once in an equal volume of HBSSHB, and were finally resuspended in HBSSHB buffer at 10^7 cells/ml and kept at room temperature in the dark for 40 min.” left out
as §2, with “To assess the role of protein kinase (PK) A, PKC or PKG on U46619-mediated desensitization of TPα signalling, cells were pre-incubated with the PKA inhibitor H-89 (10 μM), the PKC inhibitor GF 109203X (50 nM) or the PKG inhibitor KT 5823 (50 nM), for 15 min and respective kinase inhibitors were maintained throughout the primary/secondary U46619-stimulations and during the washes.” left out

[1] = secondary 1 μM U46619 at 15 min

Δ[Ca2+]i, U46619-induced (TP^Δ328; primary stimulation, 1 μM U46619 4 min): 180 ± 5.6 nM | Δ[Ca2+]i, U46619-induced (TP^Δ328; [1]): 158 ± 3.8 nM | Δ[Ca2+]i, U46619-induced (TP^Δ328; secondary 1 μM U46619 at 60 min): 178 ± 6.7 nM | secondary U46619 [Ca2+]i response relative to primary response (TP^Δ328; TP^Δ328, restimulation at 15 min): ~80% | Δ[Ca2+]i, U46619-induced (TPα^Δ336; primary 1 μM U46619 4 min): 240 ± 14 nM | Δ[Ca2+]i, U46619-induced (TPα^Δ336; [1]): 50 ± 3.4 nM | secondary U46619 [Ca2+]i response relative to primary response (TPα^Δ336; TPα^Δ336): 20%
SMILES: CCCCC[C@H](O)/C=C/[C@@H]1[C@@H](C/C=C\CCCC(=O)O)[C@H]2CO[C@@H]1C2 [U46619]
